Test results published in US20040209907A1, “Formulation and methods for the treatment of thrombocythemia” (priority 2003, published 2004).
Where “and” joins values, the source holds several entries; their conditions need not be identical. Identical values can stand only once. Like-named read-outs stand apart in the source and are kept apart here.

Key:
[1] = Cardiovascular study in dogs comparing metabolite A with milrinone
Description: (§1) A study was conducted in a large group of dogs comparing metabolite A with the standard reference inotrope milrinone.

[2] = Permeation of anagrelide from saturated solutions through human epidermis (Franz-type diffusion cells); assay type: in vitro ADME; conditions: for Amt permeated at 24 hours: human epidermis
[3] = Pharmacokinetics in healthy male volunteers after a single dose of anagrelide; conditions: healthy male volunteers N=38; single 1 mg oral dose of anagrelide; analyte = label
Source text: Summary of mean Pharmacokinetic Parameters of Anagrelide in Volunteers after a Single Dose of the Drug

[4] = Permeation of anagrelide from saturated solutions through human epidermis (Franz-type diffusion cells); assay type: in vitro ADME
Description: Saturated Solutions of Anagrelide were Prepared in:
1. 5% lauryl alcohol in isopropyl myristate (LA in IPM)
2. 2% oleic acid in propylene glycol (OA in PG)
3. 0.5% oleic acid in propylene glycol
4. 5% glyceryl monooleate in isopropyl myristate (GMO in IPM)
5. 5% glyceryl laurate in isopropyl myristate (GLA in IPM)
9. Isopropyl myristate (IPM)
11. 5% oleic acid (OA) in propylene glycol (PG)
12. 70:30 (v/v) dimethyl sulfoxide: propylene glycol
An analytical method using HPLC with UV detection was established for anagrelide. Six point calibration curves were generated over the range 0.2-2 μg/ml were generated for each analytical run and the precision confirmed on each occasion by the making at least 7 replicate injections of the highest standard. Details of the equipment and methods used are given below.
Human epidermis was prepared by the heat separation technique (A. M. Kligman and E Christophers, Preparation of isolated sheets of human stratum corneum. Arch Dermatol., vol. 88, 70-73 (1963). Water was heated to 60° C. on a hotplate and the skin was immersed in the water at this temperature for 1 minute. The skin was then removed from the water and the epidermis carefully peeled off using blunt tweezers. Care was taken not to introduce any holes in this process. The epidermal tissue was placed on a filter paper stratum corneum uppermost. The samples were then stored in freezer.
Franz-type horizontal glass diffusion cells were used. The receptor medium was thermostatted at 37° C., to represent body temperature. There will be a temperature gradient across the membrane and applied solution, but this should simulate ‘in use’ conditions. Under these conditions the surface temperature of the skin was 32° C.
The skin samples were thawed overnight before use. The epidermal membranes were cut to size and were placed between the two halves of the cells. High vacuum grease was used to seal the two compartments. The cell was clamped using a metal holder. The receptor arm was closed using glass caps to prevent evaporation. The donor compartment was occluded to prevent any donor solution evaporation
The receptor medium was first introduced and equilibrated for 1 h. 1 mL of the saturated solution with excess drug was applied in the donor compartment. Excess drug was used to ensure there is no depletion of the drug during the course of the experiment. The starting time was taken as the time at which the solutions were applied.
At set sampling points (12, 24, 30, 36 and 48 hours), 200 μL of the receptor phase from each diffusion cell was removed for analysis of the anagrelide and replaced by an equivalent of fresh receptor phase solution pre-thermostatted to 37° C.
For each solution, six replicates were tested. A control (without any formulation applied in the donor compartment) was also examined.

[5] = Plasma levels of anagrelide and metabolite A after oral, intra-venous and transdermal anagrelide in the mini-pig; assay type: in vivo; conditions: for AUC / Cmax: mini-pig n=3, plasma analyte = label
Description: The plasma level of anagrelide and metabolite A were measured in a mini-pig study following oral, intra-venous and transdermal administration of anagrelide.
The comparative bioavailability of anagrelide following oral administration of 1 mg or the dermal application of a saturated solution to ˜45 cm2 surface area of the back was assessed in three minipigs. Standard AgrylinR capsules (2×0.5 mg) were administered orally to fasted animals, whereas the dermal formulation was a saturated solution of the drug in 5% (v/v) oleic acid in propylene glycol.
Plasma concentrations of anagrelide and its metabolites were determined by a validated LC-MS/MS assay. Pharmacokinetic parameters were calculated by non-compartmental methods using WinNonlin.
Studies in the Mini-Pig (n=3)

[6] = Pharmacokinetics in patients with myeloproliferative disease at steady state; conditions: patients N=18, multiple dosing, analyte = label
CD34+ cells = assay: Megakaryocyte number in thrombopoietin-expanded CD34+ cell cultures; assay type: cell-based; conditions: for effect on number of megakaryocytes: day-8 cultures; for number of megakaryocytes: day-12 cultures
Source text: Cells were harvested for analysis after 4 or 8 days of the initiation of drug treatment (day-8 and day-12 cultures, respectively). As shown in FIG. 2 in day-8 cultures no effect of anagrelide could be detected.

platelet = assay: Therapeutic platelet lowering action
[7] = dog, in vivo
Description: as §1

PDE III = PDE III activity of anagrelide and metabolite A; assay type: biochemical
Description: Inhibition of PDE III, which is present in myocardium, causes an increase in both the force and rate of cardiac contractility. These are undesirable side effects for a platelet reducing agent.
The PDE III activity of both anagrelide and metabolite A was evaluated by standard methods.

[8] = anagrelide Dermal, saturated solution in 5% OA in PG, ~45 cm2, 24 h
[9] = anagrelide Intra-venous 1 mg/propylene glycol

Cc1[nH]c(=O)c(C#N)cc1-c1ccncc1 [milrinone]
effect on (+)dP/dt max (a measure of contractility) [1]: immediate, dose-dependent increases in (+)dP/dt max, but they were not well sustained
maximum decrease in mean blood pressure ([1]; dose-dependent): about 30 mmHg
mean maximum increase in heart rate ([1]; dose-dependent): ~76 b.p.m.

O=C1CN2Cc3c(ccc(Cl)c3Cl)N=C2N1 [Anagrelide]
Cav from the maximum likely flux rate through human skin ([2]; calculated for transdermal delivery in man): 3 to 4 ng/mL
Amt permeated at 24 hours ([2]; saturated solution in 0.5% OA in PG): 0.5 μg/cm^2
Amt permeated at 24 hours ([2]; saturated solution in 70:30 DMSO:PG ('gold standard')): 8.4 μg/cm^2
Amt permeated at 24 hours ([2]; saturated solution in 70:30 DMSO:PG ('gold standard'), listed as anagrelide): 8.41 μg/cm^2
Amt permeated at 24 hours ([2]; saturated solution in Ethanol): 0.9 μg/cm^2
Amt permeated at 24 hours ([2]; saturated solution in Formulation 1 (Labrasol, Plurol Oleique, Labrafac Lipophile, propylene glycol)): 2.1 μg/cm^2
Amt permeated at 24 hours ([2]; saturated solution in Formulation 2 (Labrafil M 1944CS, Labrafac Lipophile, Labrasol, Plurol oleique, water)): 1.5 μg/cm^2
Amt permeated at 24 hours ([2]; saturated solution in Glycerol): 0.04 μg/cm^2
Amt permeated at 24 hours ([2]; saturated solution in PG (propylene glycol)): 0.5 μg/cm^2 and 0.54 μg/cm^2
Amt permeated at 24 hours ([2]; saturated solution in PG (propylene glycol), listed as anagrelide): 0.5 μg/cm^2
Amt permeated at 24 hours ([2]; saturated solution in Transcutol): 0.0 μg/cm^2 and 0 μg/cm^2
Amt permeated at 24 hours ([2]; saturated solution in Triacetin): 0.0 μg/cm^2 and 0 μg/cm^2
AUC0-inf ± RSD (%) [3]: 0.0111 ± 0.0376 µg·h/mL
Cmax ± RSD (%) [3]: 4.99 ± 74.4 ng/mL
Tmax ± RSD (%) [3]: 1.3 ± 53.8 h
t1/2 ± RSD (%) [3]: 1.5 ± 49.8 h
Amt permeated at 24 hours ([4]; saturated solution in 2% OA in PG): 8.9 μg/cm^2
Amt permeated at 24 hours ([4]; saturated solution in 5% GLA in IPM): 5.2 μg/cm^2
Amt permeated at 24 hours ([4]; saturated solution in 5% GMO in IPM): 5.7 μg/cm^2
Amt permeated at 24 hours ([4]; saturated solution in 5% LA in IPM): 0.5 μg/cm^2
Amt permeated at 24 hours ([4]; saturated solution in 5% OA in PG): 4.4 μg/cm^2
Amt permeated at 24 hours ([4]; saturated solution in IPM (isopropyl myristate)): 1.5 μg/cm^2
AUC [5, 8]: 0.0108 µg·h/mL
Cmax [5, 8]: 0.69 ng/mL
AUC [5, 9]: 0.0507 µg·h/mL
Cmax [5, 9]: 87.1 ng/mL
AUC ([5]; anagrelide Oral 1 mg/capsule): 0.0103 µg·h/mL
Cmax ([5]; anagrelide Oral 1 mg/capsule): 1.45 ng/mL
decline in concentrations post-peak prior to wash-off at 24 h ([5]; mini-pig, dermal application): 50%
average dermal flux ([5]; mini-pig, dermal saturated solution in 5% oleic acid in propylene glycol, estimated): 197 ng/cm2/h
maximum plasma concentration lower following dermal application versus oral ([5]; mini-pig, dermal versus oral 1 mg): 50%
exposure to anagrelide, dermal versus oral route ([5]; mini-pig, oral 1 mg versus dermal saturated solution): comparable exposure
AUC0-t ± RE (AUC over dosage interval) [6]: 18.64(5.28) ng · h/mL
Cmax ± RE [6]: 5.31(1.33) ng/mL
Tmax ± RE [6]: 2.00(0.32) hours
t1/2 ± RE [6]: 2.89(0.73) hours
effect on number of megakaryocytes (CD34+ cells; continuous exposure to 4 ng/ml anagrelide (~13 nM)): no effect
number of megakaryocytes (CD34+ cells; continuous exposure to 4 ng/ml anagrelide (~13 nM), p=0.038, n=3): 77±5 % of control
effect on number of megakaryocytes (CD34+ cells; single dose of 40 ng/ml anagrelide (~133 nM)): no effect
number of megakaryocytes (CD34+ cells; single dose of 40 ng/ml anagrelide (~133 nM), p=0.015, n=3): 68±4 % if control

O=C1NC2=Nc3ccc(Cl)c(Cl)c3CN2C1O (stereo not drawn) [Metabolite A]
therapeutic platelet lowering action relative to anagrelide (platelet): equipotent
effect on (+)dP/dt max (a measure of contractility) [7]: well sustained and largely dose-dependent
maximum decrease in mean blood pressure [7]: about 30 mmHg
mean maximum increase in heart rate [7]: ~66 b.p.m.
potency relative to milrinone in decreasing mean blood pressure [7]: 10 ×
potency relative to anagrelide as an inhibitor of PDEIII (PDE III; earlier in vitro studies): 40 fold
PDE III potency relative to anagrelide (PDE III; standard methods): 40 ×
potency as a cardiovascular agent relative to anagrelide (PDE III; statement): ~40 times
